SMILES strings stand for the structures.

As a reminder, the inhibition is how much of the control response was suppressed.

In the experiment the target is T1, Sirt2 (Homo sapiens, UniProt Q8IXJ6).
T1 construct: Expression and purification of Sirt1_133−747, Sirt2_56−356, and Sirt3_118−395 was carried out as described previously; made in house
T1 sequence (Q8IXJ6 56-356): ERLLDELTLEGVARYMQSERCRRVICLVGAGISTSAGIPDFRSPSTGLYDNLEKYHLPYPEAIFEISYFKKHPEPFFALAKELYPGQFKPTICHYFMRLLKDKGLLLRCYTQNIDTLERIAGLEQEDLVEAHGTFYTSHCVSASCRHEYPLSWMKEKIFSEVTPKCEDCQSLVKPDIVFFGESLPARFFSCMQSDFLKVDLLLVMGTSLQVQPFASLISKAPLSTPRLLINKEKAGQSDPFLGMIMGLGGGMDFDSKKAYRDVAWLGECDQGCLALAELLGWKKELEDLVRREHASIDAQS
In words: FP-based binding assay (competition with fluorescently labelled SirReal probe). On the set-up: key to Sirt2 inhibition FP-Assay (class): n.i. = no inhibition detected. From the text: This conformational change is also observed upon binding of numerous other compounds as myristoylated substrates, for instance.23 A recently developed fluorescence polarization (FP)‐based binding assay was utilized to determine whether our compounds are able to prevent binding of a fluorescently labelled SirReal to the catalytic core of Sirt2.7 Serendipitously, competition with the fluorescent probe could be confirmed for 7 f (Table S3). […] Therefore, this scaffold seemed to be a promising structure for further derivatization. […]
yielding the percentage substrate conversion. Comparison of the determined substrate conversion with a no-inhibition DMSO control yields the percentage inhibition at the respective […]
For determination of IC50, inhibitory activity of the respective compound was determined at 8 to 10 distinct concentrations. The measured values were analysed by a non-linear fit to the dose-response curve using a four parameter logistic model (Figure S6):
Figure S6: Non-linear regression of the dose-response curves of compounds 15c and 15f at the thermal equilibrium (∆, black) and after 5 minutes of 365 nm irradiation (red). […]
before 5 µL of the solution of 21 (40 nM final assay concentration) were added. After further 30 min of incubation at 37 °C the fluorescence intensities were recorded with an EnVisionTM plate reader (PerkinElmer) with the following settings: optical module – BODIPY TMR FP, excitation filter – FP 531 nm, emission filter 1 – FP p-pol 595 nm, emission filter 2 – FP s-pol 595 nm. Fluorescence polarization (P) values were determined as […] (mP), […]
where Is/IP are the fluorescence intensities measured in the s- and the p-plane respectively, both blank corrected. […] Inhibition was calculated from fluorescence polarization in relation to the maximal polarization and minimal […]
Table S3: Compounds 7c, 7f and 9a examined in the FP-based binding assay and in the ZMAL activity assay. Inhibition of Sirt2 in the FP-based binding assay indicates displacement of the fluorescence-labelled SirReal probe and implies a similar binding mode. […]

Regarding `Cc1cc(/N=N/c2cncc(C(N)=O)c2)cc(C)c1N` [7 f], where the note is “@ 10 µM, read-out: Sirt2 inhibition FP-Assay, % inhibition of binding of the fluorescent probe”, the inhibition at 10 µM came to 46%.
For `NC(=O)c1cncc(/N=N/c2c(O)ccc3ccccc23)c1` [7 c], the “Sirt2 inhibition FP-Assay (class)” value is “n.i”.
With `CC(=O)Nc1c(C)cc(/N=N/c2cncc(C(N)=O)c2)cc1C` [9 a], for the setting “@ 100 µM, read-out: Sirt2 inhibition FP-Assay, % inhibition of binding of the fluorescent probe”, the inhibition at 100 µM came to 69%.
